In patent publication US8623998B2, “Method of production of polyanionic drug-carrier conjugates” (priority 2008, dated 2014):

System: P388 leukemia
Test: Survival of mice with P388 leukemia treated with methotrexate-fibrinogen conjugate
Assay type: in vivo
Conditions: dosage of methotrexate 40 mg/kg
Procedure: Table of survival of mice with P388 leukemia treated with methotrexate-fibrinogen conjugate. Dosage of methotrexate 40 mg/kg.
S—number of mice with no leukemia detected on the 60th day of the experiment (mice considered cured) L—number of mice which died before the control ILS—ILS increase of life span Conjugates F-MTX were obtained in the reaction of fibrinogen glycation with fructose. Conjugates G-MTX were obtained in the reaction of fibrinogen glycation with glucose. Glycation was carried out according to the high temperature procedure.
Table, of survival of, mice with P388 leukemia treated with methotrexate fibrinogen conjugate. Dosage of methotrexate 40 mg/kg.

Q: How did the “ILS (%) increase of life span” value turn out when `CN(Cc1cnc2nc(N)nc(N)c2n1)c1ccc(C(=O)N[C@@H](CCC(=O)O)C(=O)O)cc1` [Methotrexat, methotrexate] was run?
A: Its value is 36%.

Q: And the Mean survival rate (experiment ended on 60th day)?
A: The Mean survival rate was 15.0.
